Laboratory results: patent publication US20080200405A1, “Drug Resistance Reversal In Neoplastic Disease” (priority 2007, published 2008)
Where a name gives a salt, the structure may show the parent alone.

Columns and labels:
TNFα = assay: Measurement of LPS Induced-TNFα in THP-1 Cells; type: cell-based, human; conditions: Homo sapiens, THP-1; read-out: TNFalpha IC50
Method: The lipid peroxidation assay method of Ohkawa, H.; Ohishi, N.; Yaki, K. Anal. Biochem. 1979, 95, 351 was used to evaluate […]. […] […] Cells were collected and spun at 1500 g for 10 minutes. Supernatant was collected and analyzed for TNFα.
Mean Percent Inhibition of TNF-alpha by compounds of the present invention is set forth in Table B. TNF-alpha inhibition data is set forth in Table B-1. OT-551 was used in both native form and in the form of nanoparticles. […] Other nitrogenous heterocyclic species of the invention are expected to show similar improvement in efficacy when disposed in nanoparticulate form.

[1] = system: Doxorubicin resistant SaOS2 cells; assay: Cancer cell viability (MTT) in the presence or absence of doxorubicin; type: cell-based, human; conditions: compound 50 ug/mL, 3 days

| Structure (SMILES) | melting point | IC50 (TNFα) [µM] | Mean OD (×10^−3), MTT viability ([1]; Dox. 10^−6 M (+)) | Mean OD (×10^−3), MTT viability ([1]; absence of Dox. (−)) |
| --- | --- | --- | --- | --- |
| CC1(C)CC(Oc2nsnc2C(=O)O)CC(C)(C)N1O.Cl | 209.1 °C (dec.) | – | – | – |
| CC1(C)CC(Oc2nsnc2N2CCN(C(=O)c3ccco3)CC2)CC(C)(C)N1O.Cl | 198.1 °C (dec.) | – | – | – |
| CC1(C)CC(Oc2nc3ccccc3s2)CC(C)(C)N1O.Cl | 160 °C (dec.) | – | – | – |
| CC1(C)C=C(COc2ccccc2N2CCOCC2)C(C)(C)N1O.Cl | 155.7 °C (dec.) | – | – | – |
| Cc1c(C)c2c(c(C)c1O)CCC(C)(C(=O)NC1CC(C)(C)N(O)C(C)(C)C1)O2.Cl (centres unmarked) | 174.9 °C (dec.) | – | – | – |
| COc1cc2c(cc1OC)CN(c1nsnc1OC1CC(C)(C)N(O)C(C)(C)C1)CC2.Cl | 166.9 °C (dec.) | – | – | – |
| CC1(C)CC(Nc2nc3ccccc3s2)CC(C)(C)N1O.Cl | 183 °C (dec.) | – | – | – |
| COc1ccc2nc(NC3CC(C)(C)N(O)C(C)(C)C3)sc2c1.Cl | 220 °C (dec.) | – | – | – |
| CC1(C)c2ccc(Br)cc2C(C)(C)N1O.Cl | 214.1 °C | – | – | – |
| CC(C)(C)OC(=O)c1nsnc1OC1CC(C)(C)N(O)C(C)(C)C1.Cl | 197 °C (dec.) | – | – | – |
| CC1(C)C=C(CO)C(C)(C)N1O (as salt: chloride) [Compound 8, 2,5-dihydro-2,2,5,5-tetramethyl-1-hydroxyl-1H-pyrrol-3-yl)methanol hydrogen chloride] | 141.9 °C (dec.) | – | – | – |
| CC1(C)CC(Oc2nsnc2OC2CC(C)(C)N(O)C(C)(C)C2)CC(C)(C)N1O (as salt: chloride) [Compound 14, 1-hydroxyl-4-(4-(2,2,6,6-tetramethylpiperidin-1-hydroxyl-4-yloxy)-1,2,5-thiadiazol-3-yloxy)-2,2,6,6-tetramethylpiperidine bis-hydrogen chloride] | 216.2 °C (dec.) | – | – | – |
| CC1(C)CC(O)C(C)(C)N1O (centres unmarked) (as salt: salt) [Compound 7, 2,2,5,5-Tetramethyl-pyrrolidine-1,3-diol] | 155.5 °C (dec.) | – | – | – |
| CC1(C)CC(NS(C)(=O)=O)CC(C)(C)N1O (as salt: salt) [Compound 10, 1-hydroxy-4-methanesulfonamido-2,2,6,6-tetramethylpiperidine] | 178.3 °C (dec.) | – | – | – |
| CC1(C)C=C(CO)CC(C)(C)N1O.Cl [Compound 25, 1-hydroxy-1,2,3,6-tetrahydro-2,2,6,6-tetramethylpyridin-4-yl)methanol hydrogen chloride] | – | 30.9 | – | – |
| CC1(C)CC(NC(=O)CCN2CCOCC2)CC(C)(C)N1O.Cl [Compound 26, N-(1-hydroxy-2,2,6,6-tetramethylpiperidin-4-yl)-3-morpholinopropanamide hydrogen chloride] | – | ≥ 100 | 261.50 ×10^−3 | 1056.33 ×10^−3 |
| CC1(C)CC(c2nn[nH]n2)CC(C)(C)N1O.Cl [Compound 30, 1-hydroxy-2,2,6,6-tetramethyl-4-(2H-tetrazol-5-yl)piperidine hydrogen chloride] | – | ≥ 100 | 310.00 ×10^−3 | 1301.25 ×10^−3 |
| CC1(C)CC(NC(=O)C2CC2)CC(C)(C)N1O.Cl [Compound 31, N-(1-hydroxy-2,2,6,6-tetramethylpiperidin-4-yl)cyclopropanecarboxamide hydrogen chloride] | – | 38.2 | 322.25 ×10^−3 | 1175.25 ×10^−3 |
| CC1(C)CC(Oc2nsnc2N2CCOCC2)C(C)(C)N1O.Cl (centres unmarked) [Compound 32, 4-(4-(1-hydroxy-2,2,5,5-tetramethylpyrrolidin-3-yloxy)-1,2,5-thiadiazol-3-yl)morpholine hydrogen chloride] | – | ≥ 100 | 231.50 ×10^−3 | 985.67 ×10^−3 |
| CC1(C)CC(CO)C(C)(C)N1O.Cl (centres unmarked) [Compound 33, 1-hydroxy-2,2,5,5-tetramethylpyrrolidin-3-yl)methanol hydrogen chloride] | – | 55.7 | – | – |
| CC1(C)CC(CO)CC(C)(C)N1O.Cl [Compound 34, (1-hydroxy-2,2,6,6-tetramethylpiperidin-4-yl)methanol hydrogen chloride] | – | 2.4 | 302.75 ×10^−3 | 1168.25 ×10^−3 |
| COc1cc(COC2CC(C)(C)N(O)C(C)(C)C2)cc(OC)c1OC.Cl [Compound 48, 1-Hydroxyl-4-(3,4,5-trimethoxybenzyloxy)-2,2,6,6-tetramethylpiperidine hydrochloride] | – | – | 50.67 ×10^−3 | 1118.00 ×10^−3 |
| COc1cc(C2=CC(C)(C)N(O)C(C)(C)C2)cc(OC)c1OC.Cl [Compound 50, 1-Hydroxy-2,3,6-trihydro-4-(3,4,5-trimethoxyphenyl)-2,2,6,6-tetramethylpiperidine hydrochloride] | – | – | 54.50 ×10^−3 | 1226.33 ×10^−3 |
| CN1CCN(c2nsnc2OC2CC(C)(C)N(O)C(C)(C)C2)CC1.Cl.Cl [Compound 52] | – | – | 195.00 ×10^−3 | 1186.33 ×10^−3 |
| CC1(C)CC(Oc2nsnc2N2CCN(c3ccccc3)CC2)CC(C)(C)N1O.Cl.Cl [Compound 53, 4-(4-phenylpiperazin-1-yl)-3-[(2,2,6,6-tetramethyl-1-hydroxypiperidinyl)-4-oxy]-1,2,5-thiadiazole hydrochloride] | – | – | 170.00 ×10^−3 | 1333.75 ×10^−3 |
| CC1(C)C(CO)=C(c2ccc(F)cc2)C(C)(C)N1O.Cl [Compound 59, (4-(4-fluorophenyl)-1-hydroxy-2,5-dihydro-2,2,5,5-tetramethyl-1H-pyrrol-3-yl)methanol hydrochloride] | – | – | 352.00 ×10^−3 | 1105.00 ×10^−3 |

Continued, in another order:

| melting point | IC50 (TNFα) [µM] | Structure (SMILES) | Mean OD (×10^−3), MTT viability ([1]; Dox. 10^−6 M (+)) | Mean OD (×10^−3), MTT viability ([1]; absence of Dox. (−)) |
| --- | --- | --- | --- | --- |
| 179.2 °C (dec.) | – | CC1(C)CC(Oc2nsnc2C#N)CC(C)(C)N1O (as salt: hydrochloride) [Compound 45] | – | – |
| – | 4 | CC1(C)C=C(CC2CNCCO2)C(C)(C)N1O.Cl.Cl (centres unmarked) [Compound 36, ((1-hydroxy-2,5-dihydro-2,2,5,5-tetramethyl-1H-pyrrol-3-yl)methyl)morpholine bis-hydrogen chloride] | 297.00 ×10^−3 | 1110.75 ×10^−3 |
| – | ≥ 100 | CC1(C)CC(=O)C(C)(C)N1O.Cl [Compound 37, 1-hydroxy-2,2,5,5-tetramethylpyrrolidin-3-one hydrogen chloride] | 366.25 ×10^−3 | 1329.75 ×10^−3 |
| 145 °C (dec.) | ≥ 100 | CC1(C)COC(=O)C(C)(C)N1O.Cl [Compound 39, N-Hydroxyl-3,3,5,5-tetramethylmorpholin-2-one hydrochloride] | 311.00 ×10^−3 | 1201.00 ×10^−3 |
| 187 °C (dec.) | 0.9 | CCCCC1(O)CC(C)(C)N(O)C(C)(C)C1.Cl [Compound 41, 1,4-dihydroxy-4-n-butyl-2,2,6,6-tetramethylpiperidine hydrochloride] | 261.25 ×10^−3 | 824.75 ×10^−3 |
| 220.8 °C (dec.) | ≥ 100 | CC1(C)CC(Oc2nsnc2-c2ccccc2)CC(C)(C)N1O.Cl [Compound 44, 1-hydroxy-4-(4-phenyl-1,2,5-thiadiazol-3-yloxy)-2,2,6,6-tetramethylpiperidine hydrochloride] | 13.25 ×10^−3 | 23.00 ×10^−3 |
| 164.7 °C (dec.) | – | CC1(C)CC(NC(=O)CCCCC2CCSS2)CC(C)(C)N1O.Cl (centres unmarked) [Compound 49, 5-(1,2-dithialan-3-yl)-N-(1-hydroxy-2,2,6,6-tetramethylpiperidin-4-yl)pentanamide hydrochloride] | 195.00 ×10^−3 | 1330.25 ×10^−3 |
| 155.7 °C | – | CC(C)c1nsnc1OCC1=CC(C)(C)N(O)C1(C)C.Cl [Compound 51] | 71.00 ×10^−3 | 1208.25 ×10^−3 |
| – | 3 | CN1CCN(c2nsnc2OC2CC(C)(C)N(O)C(C)(C)C2)CC1.Cl.Cl [Compound 52, dihydrochloride] | – | – |
| 218 °C (dec.) | – | CC1(C)CC(Oc2nsnc2N2CCSCC2)CC(C)(C)N1O.Cl [Compound 55, 4-(4-(1-hydroxy-2,2,6,6-tetramethylpiperidin-4-yloxy)-1,2,5-thiadiazol-3-yl)thiomorpholine hydrochloride] | 285.75 ×10^−3 | 1037.25 ×10^−3 |
| – | 12 | CC1(C)CC(=CC(=O)N2CCN(c3ccccc3)CC2)CC(C)(C)N1O [Compound 56, hydrochloride] | 308.75 ×10^−3 | 1153.00 ×10^−3 |
| 181 °C | – | COc1cc(CNC2CC(C)(C)N(O)C(C)(C)C2)cc(OC)c1OC.Cl.Cl [Compound 58, N-(3,4,5-trimethoxybenzyl)-1-hydroxy-2,2,6,6-tetramethylpiperidin-4-amine dihydrochloride] | 291.50 ×10^−3 | 1207.00 ×10^−3 |
| – | ≥ 100 | CC1(C)C=C(c2ccc(F)cc2)CC(C)(C)N1O [Compound 62, hydrochloride] | 40.25 ×10^−3 | 184.75 ×10^−3 |
| – | ≥ 100 | CC1(C)c2ccc(N3CCOCC3)cc2C(C)(C)N1O [Compound 66, 2-hydroxy-1,1,3,3-tetramethyl-5-morpholinoisoindoline hydrochloride] | – | – |
